In brackets after ≈: the same amount, converted by molar mass.
Legend:
Format in all cases: functional
[1] = test system: Klebsiella aerogenes; assay: Compound was evaluated for inhibitory activity against EB17 Enterobacter aerogenes
[2] = test system: Klebsiella pneumoniae; assay: Compound was evaluated for inhibitory activity against X26 Klebsiella pneumoniae
[3] = test system: Acinetobacter; assay: Compound was evaluated for inhibitory activity against AC12 Acinetobacter
[4] = test system: Providencia rettgeri; assay: Compound was evaluated for inhibitory activity against C24 Providencia rettgeri
[5] = test system: Providencia stuartii; assay: Compound was evaluated for inhibitory activity against PR33 Providencia stuartii
[6] = test system: Haemophilus influenzae; assay: Compound was evaluated for inhibitory activity against C.L Haemophilus influenzae ampicillin sensitive
[7] = test system: Citrobacter; assay: Compound was evaluated for inhibitory activity against CF17 Citrobacter
[8] = test system: Serratia; assay: Compound was evaluated for inhibitory activity against X99 Serratia
[9] = test system: Morganella morganii; assay: Compound was evaluated for inhibitory activity against PR15 Morganella morganii
[10] = test system: Staphylococcus aureus; assay: Compound was evaluated for inhibitory activity against S13E Staphylococcus aureus methicillin resistant penicillin resistant macrolide sensitive (PBP2a producer)
[11] = test system: Enterococcus faecalis; assay: Compound was evaluated for inhibitory activity against 2041 Enterococcus faecalis Gp.D streptococcus penicillin susceptible
[12] = test system: Enterobacter cloacae; assay: Compound was evaluated for inhibitory activity against 265a Enterobacter cloacae beta-lactamase
[13] = test system: Haemophilus influenzae; assay: Compound was evaluated for inhibitory activity against 76 Haemophilus influenzae beta-lactamase
[14] = test system: Serratia; assay: Compound was evaluated for inhibitory activity against SE3 Serratia
[15] = test system: Streptococcus pneumoniae; assay: 32 Compound was evaluated for inhibitory activity against Park S Streptococcus pneumoniae
[16] = test system: Escherichia coli; assay: Compound was evaluated for inhibitory activity against EC14 Escherichia coli sensitive
[17] = test system: Salmonella; assay: Compound was evaluated for inhibitory activity against X514 Salmonella
[18] = test system: Klebsiella pneumoniae; assay: Compound was evaluated for inhibitory activity against KAE Klebsiella pneumoniae
[19] = test system: Enterobacter cloacae; assay: Compound was evaluated for inhibitory activity against EB5 Enterobacter cloacae
[20] = test system: Staphylococcus aureus; assay: Compound was evaluated for inhibitory activity against X400S Staphylococcus aureus methicillin resistant and macrolide resistant
[21] = test system: Streptococcus pyogenes; assay: Compound was evaluated for inhibitory activity against C203 Streptococcus pyogenes Gp.A
[22] = test system: Klebsiella aerogenes; assay: Compound was evaluated for inhibitory activity against C32 Enterobacter aerogenes
[23] = test system: Escherichia coli; assay: Compound was evaluated for inhibitory activity against TEM Escherichia coli beta-lactamase
[24] = test system: Staphylococcus aureus; assay: Compound was evaluated for inhibitory activity against X1.1 Staphylococcus aureus penicillin sensitive
[25] = test system: Providencia stuartii; assay: Compound was evaluated for minimum inhibitory concentration against PR33 Providencia stuartii
[26] = test system: Acinetobacter; assay: Compound was evaluated for minimum inhibitory concentration against AC12 Acinetobacter
[27] = test system: Serratia; assay: Compound was evaluated for minimum inhibitory concentration against SE3 Serratia
[28] = test system: Morganella morganii; assay: Compound was evaluated for minimum inhibitory concentration against PR15 Morganella morganii
[29] = test system: Serratia; assay: Compound was evaluated for minimum inhibitory concentration against X99 Serratia
[30] = test system: Salmonella; assay: Compound was evaluated for minimum inhibitory concentration against X514 Salmonella
[31] = test system: Providencia rettgeri; assay: Compound was evaluated for minimum inhibitory concentration against C24 Providencia rettgeri
[32] = test system: Streptococcus pneumoniae; assay: Compound was evaluated for inhibitory activity against Park S Streptococcus pneumoniae
[33] = test system: Citrobacter; assay: Compound was evaluated for minimum inhibitory concentration against CF17 Citrobacter

Compound	MIC [1]	MIC [2]	MIC [6]	MIC [10]	MIC [11]	MIC [12]	MIC [13]	MIC [16]	MIC [18]	MIC [19]	MIC [20]	MIC [21]	MIC [22]	MIC [23]	MIC [24]	other results
N[C@@H](C(=O)N[C@@H]1C(=O)N2C(C(=O)O)=C(C(F)(F)F)CC[C@H]12)c1cccc(F)c1	8 µM (≈ 3.21 µg/mL)	2 µM (≈ 0.803 µg/mL)	2 µM (≈ 0.803 µg/mL)	32 µM (≈ 12.8 µg/mL)	32 µM (≈ 12.8 µg/mL)	32 µM (≈ 12.8 µg/mL)	2 µM (≈ 0.803 µg/mL)	4 µM (≈ 1.61 µg/mL)	16 µM (≈ 6.42 µg/mL)	16 µM (≈ 6.42 µg/mL)	64 µM (≈ 25.7 µg/mL)	0.06 µM (≈ 0.0241 µg/mL)	16 µM (≈ 6.42 µg/mL)	2 µM (≈ 0.803 µg/mL)	2 µM (≈ 0.803 µg/mL)	MIC [3]: 32 µM (≈ 12.8 µg/mL); MIC [4]: 16 µM (≈ 6.42 µg/mL); MIC [5]: 16 µM (≈ 6.42 µg/mL); MIC [7]: 16 µM (≈ 6.42 µg/mL); MIC [8]: 32 µM (≈ 12.8 µg/mL); MIC [9]: 32 µM (≈ 12.8 µg/mL); MIC [14]: 64 µM (≈ 25.7 µg/mL); MIC [15]: 0.25 µM (≈ 0.1 µg/mL); MIC [17]: 2 µM (≈ 0.803 µg/mL)
Cc1ccc([C@@H](N)C(=O)N[C@@H]2C(=O)N3C(C(=O)O)=C(C(F)(F)F)CC[C@H]23)cc1	8 µM (≈ 3.18 µg/mL)	0.5 µM (≈ 0.199 µg/mL)	2 µM (≈ 0.795 µg/mL)	4 µM (≈ 1.59 µg/mL)	8 µM (≈ 3.18 µg/mL)	32 µM (≈ 12.7 µg/mL)	4 µM (≈ 1.59 µg/mL)	2 µM (≈ 0.795 µg/mL)	8 µM (≈ 3.18 µg/mL)	16 µM (≈ 6.36 µg/mL)	4 µM (≈ 1.59 µg/mL)	0.06 µM (≈ 0.0238 µg/mL)	8 µM (≈ 3.18 µg/mL)	4 µM (≈ 1.59 µg/mL)	1 µM (≈ 0.397 µg/mL)	MIC [25]: 16 µM (≈ 6.36 µg/mL); MIC [26]: 16 µM (≈ 6.36 µg/mL); MIC [27]: 64 µM (≈ 25.4 µg/mL); MIC [28]: 8 µM (≈ 3.18 µg/mL); MIC [29]: 16 µM (≈ 6.36 µg/mL); MIC [30]: 4 µM (≈ 1.59 µg/mL); MIC [31]: 16 µM (≈ 6.36 µg/mL); MIC [32]: 0.13 µM (≈ 0.0517 µg/mL); MIC [33]: 16 µM (≈ 6.36 µg/mL)

From ChEMBL document CHEMBL1130994, “3-trifluoromethylcarbacephems: synthesis of broad spectrum antibacterial compounds” (1998)
